Measurements taken from patent publication US11591325B2, “2-polysubstituted aromatic ring-pyrimidine derivatives, preparation and medical application thereof” (ZHEJIANG UNIVERSITY, priority 2016, dated 2023).
Where two headings read alike, the source gives them in different places.

Key:
[1] = test system: human multiple myeloma cells RPMI 8226; assay: MTS in vitro proliferation assay, RPMI 8226; type: cell-based; details: 72 hours, read-out: IC50(μM) RPMI8226
Experimental: (§1) The cells in the logarithmic growth phase were trypsinized, counted, and seeded at a density of 1×10^4 cells/well in a 96-well plate at 100 μL per well in a 37° C. incubator containing 5% CO2 overnight. For the culture, six concentration gradients were set for each compound, and three sets of duplicate wells were set for each concentration. After the addition, the cells were cultured for 72 hours, and 20 μL of MTS was added. After incubating for 2 hours at 37° C., the absorbance at 490 nm (L1) was measured with a SpectraMAX 340 microplate reader.

[2] = test system: human mantle cell lymphoma cells Mino; assay: MTS in vitro proliferation assay, Mino; type: cell-based; details: 72 hours
Experimental: as §1

[3] = test system: human lymphoma cells Romas; assay: MTS in vitro proliferation assay, Romas; type: cell-based; details: 72 hours
Experimental: as §1

[4] = test system: human mantle cell lymphoma cells Jeko-1; assay: MTS in vitro proliferation assay, Jeko-1; type: cell-based; details: 72 hours
Experimental: as §1

[5] = test system: human acute monocytic leukemia cells MV-4-11; assay: MTS in vitro proliferation assay, MV-4-11; type: cell-based; details: MV4-11, 72 hours
Experimental: as §1

[6] = test system: Human lung cancer cell A549; assay: MTS in vitro proliferation assay, A549; type: cell-based; details: 72 hours, average of three experiments
Experimental: as §1

[7] = test system: human prostate cancer cell LnCAP; assay: MTS in vitro proliferation assay, LnCAP; type: cell-based; details: 72 hours, average of three experiments
Experimental: as §1

[8] = test system: human gastric cancer cell BGC-823; assay: MTS in vitro proliferation assay, BGC-823; type: cell-based; details: 72 hours, average of three experiments
Experimental: as §1

[9] = test system: human colon cancer cell HCT116; assay: MTS in vitro proliferation assay, HCT116; type: cell-based; details: HCT-116, 72 hours, average of three experiments
Experimental: as §1

[10] = test system: human ovarian cancer cell OVCAR-8; assay: MTS in vitro proliferation assay, OVCAR-8; type: cell-based; details: 72 hours, average of three experiments
Experimental: as §1

[11] = test system: human colon cancer cell Colo205; assay: MTS in vitro proliferation assay, Colo205; type: cell-based; details: COLO 205, 72 hours, average of three experiments
Experimental: as §1

[12] = test system: human breast cancer cells MCF-7; assay: cells; details: MCF7, 72 h, read-out: IC50(μM) MCF-7
Experimental: as §1

Chk1 protein kinase = target: T1, Chk1 protein kinase (Homo sapiens, UniProt O14757); assay: Chk1 enzyme inhibitory activity, ADP-Glo kit; type: biochemical
T1 sequence (O14757 1-476): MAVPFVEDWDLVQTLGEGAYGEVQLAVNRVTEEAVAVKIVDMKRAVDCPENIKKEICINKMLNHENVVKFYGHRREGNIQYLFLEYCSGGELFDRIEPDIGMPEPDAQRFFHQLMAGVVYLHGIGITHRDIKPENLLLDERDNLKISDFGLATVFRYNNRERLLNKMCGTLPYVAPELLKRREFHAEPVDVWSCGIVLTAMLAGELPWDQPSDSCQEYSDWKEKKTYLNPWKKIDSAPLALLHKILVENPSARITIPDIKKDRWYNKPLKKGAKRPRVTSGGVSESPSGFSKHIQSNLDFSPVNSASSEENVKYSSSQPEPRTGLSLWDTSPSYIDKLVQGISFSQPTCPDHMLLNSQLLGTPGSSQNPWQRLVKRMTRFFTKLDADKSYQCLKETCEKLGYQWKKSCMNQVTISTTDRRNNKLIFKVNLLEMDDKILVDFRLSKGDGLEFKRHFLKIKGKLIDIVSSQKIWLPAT
Experimental: With the Saurosporine as a positive control, the Chk1 enzyme inhibitory activity (IC50) was evaluated using the ADP-Glo kit. […] The phosphorylation process consumes ATP. After the reaction, ADP-Glo™ Reagent consumes the remaining ATP. The ADP produced during the reaction can be transformed by ADP-Glo Detection Reagent. For ATP, ATP acts as a substrate for the Ultra-Glo™ luciferase catalytic reaction, producing an optical signal. The test compound was dissolved in DMSO to make a 10 mM stock solution and diluted to 12 different concentrations in a certain ratio for testing. […] Incubate for 1 h, stop the reaction by adding 5 μL of ADP-Glo™ Reagent, and incubate for 1 h at 37° C. 10 μL of ADP-Glo Detection Reagent was added, incubated at 37° C. for 30 min, and three parallel wells were set for each sample. […] was measured by luminescence fluorescence microplate reader, and data were calculated using GraphPad Prism 5 software to calculate IC50 values.

[13] = Table 2 left column pair, numeric cells, read-out: Chk1 (IC50)
[14] = Table 2 >10 μM or <1 μM, read-out: Chk1 IC50, bound with unit

Row | Compound | IC50 (Chk1 protein kinase; [13]) [nM] | IC50 (Chk1 protein kinase; [14]) [nM] | IC50 [1] [µM] | IC50 [2] [µM] | IC50 [3] [µM] | IC50 [4] [µM] | IC50 [5] [µM] | IC50 [6] [µM] | IC50 [7] [µM] | IC50 [8] [µM] | IC50 [9] [µM] | IC50 [10] [µM] | IC50 [11] [µM] | IC50 [12] [µM]
1 | CNc1nc(Nc2cnc(C#N)c(O[C@@H]3CCCNC3)c2)ncc1-c1cnn(C)c1 [Compound 35, (R)-N^4-methyl-5-(1-methyl-1H-pyrazol-4-yl)-N^2-(2-cyano-3-(piperidin-3-yloxy)pyridin-5-yl)-2,4-diaminopyrimidine] | – | – | 1.27 | 0.647 | 0.356 | 0.339 | 0.053 | 2.16 | 2.17 | 4.81 | 0.98 | 0.789 | 0.663 | 1.01
2 | CNc1nc(Nc2cnc(C#N)c(O[C@H]3CCCNC3)c2)ncc1-c1cnn(C)c1 [Compound 36, (S)-N^4-methyl-5-(1-methyl-1H-pyrazol-4-yl)-N^2-(2-cyano-3-(piperidin-3-yloxy)pyridin-5-yl)-2,4-diaminopyrimidine] | – | – | 2.49 | 0.956 | 0.649 | 0.548 | 0.072 | 5.74 | 4.89 | – | 2.55 | 4.18 | 2.18 | –
3 | CNc1nc(Nc2cnc(C#N)c(O[C@H](C)CN(C)C)c2)ncc1-c1cnn(C)c1 [Compound 41, (R)-N^4-methyl-5-(1-methyl-1H-pyrazol-4-yl)-N^2-(2-cyano-3-(1-dimethylaminopropyl-2-oxy)pyridin-5-yl)-2,4-diaminopyrimidine] | – | – | 0.945 | 0.473 | 0.119 | 0.094 | 0.034 | 2.17 | 2.62 | 5.17 | 1.31 | 1.19 | 0.993 | 1.01
4 | CNc1nc(Nc2cc(OC3CCNCC3)n(C)n2)ncc1-c1cnn(C)c1 [Compound 1, N^4-methyl-5-(1-methyl-1H-pyrazol-4-yl)-N^2-(1-methyl-5-(piperidin-4-yloxy)pyrazol-3-yl)-2,4-diaminopyrimidine] | – | > 10000 | – | – | – | – | – | – | – | – | – | – | – | –
5 | CNc1nc(Nc2cnc(C#N)c(OC3CCCNC3)c2)ncc1-c1cnn(C)c1 (stereo not shown) [Compound 32, N^4-Methyl-5-(1-methyl-1H-pyrazol-4-yl)-N^2-(2-cyano-3-(piperidin-3-yloxy)pyridin-5-yl)-2,4-diaminopyrimidine] | – | – | 8.18 | 0.859 | 0.789 | 0.189 | 0.064 | 5.17 | 6 | 7.64 | 4.18 | – | – | –
6 | CNc1nc(Nc2cc(OC3CCNCC3)ns2)ncc1-c1cnn(C)c1 [Compound 4, N^4-Methyl-5-(1-methyl-1H-pyrazol-4-yl)-N^2-(2-(piperidin-4-yloxy)isothiazol-5-yl)-2,4-diaminopyrimidine] | – | > 10000 | – | – | – | – | – | – | – | – | – | – | – | –
7 | CNc1nc(Nc2cn(C)c(OC3CCNCC3)n2)ncc1-c1cnn(C)c1 [Compound 3, N^4-Methyl-5-(1-methyl-1H-pyrazol-4-yl)-N^2-(1-methyl-2-(piperidin-4-yloxy)imidazol-4-yl)-2,4-diaminopyrimidine] | – | > 10000 | – | – | – | – | – | – | – | – | – | – | – | –
8 | CNc1nc(Nc2cnc(C#N)c(O[C@@H](C)CN(C)C)c2)ncc1-c1cnn(C)c1 [Compound 42, (S)-N^4-methyl-5-(1-methyl-1H-pyrazol-4-yl)-N^2-(2-cyano-3-(1-dimethylaminopropyl-2-oxy)pyridin-5-yl)-2,4-diaminopyrimidine] | – | – | 0.814 | 0.227 | 0.218 | 0.137 | 0.092 | > 10 | 5.74 | – | 4.19 | 2.17 | 1.03 | –
9 | CNc1nc(Nc2cc(OC3CCNCC3)no2)ncc1-c1cnn(C)c1 [Compound 2, N^4-Methyl-5-(1-methyl-1H-pyrazol-4-yl)-N^2-(3-(piperidin-4-yloxy)isoxazol-5-yl)-2,4-diaminopyrimidine] | – | > 10000 | – | – | – | – | – | – | – | – | – | – | – | –

Continued, in another order:

Row | IC50 (Chk1 protein kinase; [13]) [nM] | IC50 (Chk1 protein kinase; [14]) [nM] | Compound | IC50 [1] [µM] | IC50 [2] [µM] | IC50 [3] [µM] | IC50 [4] [µM] | IC50 [5] [µM] | IC50 [6] [µM] | IC50 [7] [µM] | IC50 [8] [µM] | IC50 [9] [µM] | IC50 [10] [µM] | IC50 [11] [µM] | IC50 [12] [µM]
10 | 8.8 | – | COc1nc(Nc2cnc(C#N)c(OCC3CCNCC3)c2)ncc1-c1cccc(F)c1 [Compound 17, 4-methoxy-5-(3-fluorophenyl)-N-(2-cyano-3-(piperidin-4-methyl)oxypyridin-5-yl)-2-aminopyrimidine] | 3.29 | 0.495 | 0.348 | 0.117 | 0.05 | 4.24 | > 10 | > 10 | 1.9 | 0.22 | 0.878 | –
11 | – | > 10000 | CNc1nc(NC2CN=C(OC3CCNCC3)O2)ncc1-c1cnn(C)c1 (stereo not shown) [Compound 5, N^4-Methyl-5-(1-methyl-1H-pyrazol-4-yl)-N^2-(2-(piperidin-4-yloxy)-4,5-2H-oxazolin-5-yl)-2,4-diaminopyrimidine] | – | – | – | – | – | – | – | – | – | – | – | –
12 | – | < 1000 | N#Cc1ncc(Nc2ncc(C(F)(F)F)cn2)cc1OC1CCCNC1 (stereo not shown) [Compound 45, 5-trifluoromethyl-N-(2-cyano-3-(piperidin-3-oxy)pyridin-5-yl)-2-aminopyrimidine] | – | – | – | – | – | – | – | – | – | – | – | –
13 | 1.8 | – | COc1nc(Nc2cnc(C#N)c(OCC3CCNCC3)c2)ncc1-c1cnn(C)c1 [Compound 18, 4-methoxy-5-(1-methyl-1H-pyrazol-4-yl)-N-(2-cyano-3-(piperidin-4-methyl)oxypyridin-5-yl)-2-aminopyrimidine] | – | – | – | – | 0.036 | 3.17 | 7 | 7.11 | 1.77 | 2.14 | 1.01 | –
14 | – | < 1000 | COc1nc(Nc2cnc(C#N)c(OCC3CCNCC3)c2)ncc1C(F)(F)F [Compound 46, 4-methoxy-5-trifluoromethyl-N-(2-cyano-3-(piperidin-4-methyl)oxypyridin-5-yl)-2-aminopyrimidine] | – | – | – | – | – | – | – | – | – | – | – | –
15 | – | < 1000 | CNc1nc(Nc2cnc(C#N)c(O[C@@H]3CCCNC3)c2)ncc1C(F)(F)F [Compound 47, (R)—N^4-methyl-5-trifluoromethyl-N^2-(2-cyano-3-(piperidin-3-oxy)pyridin-5-yl)-2,4-diaminopyrimidine] | – | – | – | – | – | – | – | – | – | – | – | –
16 | – | > 10000 | CNc1nc(Nc2cnc(OC3CCNCC3)s2)ncc1-c1cnn(C)c1 [Compound 6, N^4-Methyl-5-(1-methyl-1H-pyrazol-4-yl)-N^2-(2-(piperidin-4-yloxy)thiazol-5-yl)-2,4-diaminopyrimidine] | – | – | – | – | – | – | – | – | – | – | – | –
